Results on two compounds are retold here after patent publication US10806743B1, “Method of administering lactitol to reduce plasma concentration of lactitol” (Braintree Laboratories, Inc., priority 2017, dated 2020).

The conditions of data set [1]: chronic idiopathic constipation; cited from earlier work.
A short description of data set [2]: Fed v. fasted administration of lactitol: plasma lactitol pharmacokinetics (LC-MS/MS). The data set is classed as in vivo, human. On the procedure: A study was performed to determine the effects of food on absorption of lactitol. Sixteen subjects (8 males and 8 females) were randomized to either Sequence A (fed/fasted) and the other half to Sequence B (fasted/fed) on Day 1 prior to dosing. Subjects returned for Day 8 dosing, 7 days following dose at Day 1, to receive study drug following the opposite food sequence, have pharmacokinetic samples collected and safety procedures performed. A standard dinner was served approximately 6 hours following dose on Day 1 or Day 8. A nighttime snack was permitted, and a standard breakfast and lunch were served prior to discharge from the clinic.
No food was allowed prior to dosing; water was consumed up to one hour before dosing and then only after one hour after dosing. Subjects assigned to Sequence A (fed/fasted) received a high-calorie and high-fat meal for lunch at 11:30 AM, as described in Table 1. Subjects receiving the high fat high calorie lunch completed the meal within 30 minutes. Dose was administered 30 minutes after the start of the meal. Subjects assigned to Sequence B (fasted/fed) continued to fast prior to dose. The staff mixed the contents of two (2) packets (approximately 21 g) with 8 oz of water. Subjects consumed the dose over 5 to 10 minutes.
Doses were administered 30 minutes after the start of the meal. Subjects assigned to Sequence B (fasted/fed) continued to fast prior to dose. The CRU mixed the contents of two (2) packets (approximately 21 g) with 8 oz of water. Subjects consumed the dose over 5 to 10 minutes.
A high-fat (approximately 50 percent of total caloric content of the meal) and high-calorie (approximately 800 to 1000 calories) meal was used. Blood samples were collected prior to dosing and at 10, 20, 30 and 60 minutes (within +/−3 minutes) and then at 2, 4, 6, 8, 10, 12, 16, 18, 20 and 24 hours (within +/−30 minutes) following dose.
An LC-MS/MS method for the determination of lactitol concentrations in human plasma has been successfully developed and validated. The calibration range of the method is 25.0 to 10,000 ng/ml for lactitol using a 50 μl sample aliquot.

The conditions of data set [3]: estimated; cited from earlier work.
The test system of a further data set is calcium absorption. Particulars: rats, diet containing 5% lactitol, two weeks; cited from earlier work.
Data set [4] in a line: Adverse events in Phase 3 constipation studies. The data set is classed as in vivo, human. The settings on record: Phase 3 studies, doses required for effective treatment of constipation. An excerpt: An Adverse Event (AE) is any untoward medical occurrence associated with the use of a drug in humans, whether or not considered drug related. An AE can therefore be any unfavorable and unintended sign (including a clinically significant abnormal laboratory finding), symptom, or disease temporally associated with the use of a medicinal (investigational) product.
These adverse reactions were transient and subsided rapidly upon dose adjustment or cessation.

The next data set deals with plasma glucose. The settings on record: 25 grams, eight healthy male volunteers; cited from earlier work.

As to `CCCCC(F)(F)[C@@]1(O)CC[C@H]2[C@@H](CC(=O)[C@@H]2CCCCCCC(=O)O)O1` [Lubiprostone], the “incidence of most common adverse reactions (nausea, diarrhea, headache, abdominal pain, abdominal distention, flatulence)” value in data set [1] is on record as > 4%.

As for `OC[C@@H](O)[C@@H](O[C@@H]1O[C@H](CO)[C@H](O)[C@H](O)[C@H]1O)[C@H](O)[C@@H](O)CO` [lactitol], the “% CV values for λz and λ1/2, fasted v. fed” value in data set [2] (fasted and fed conditions) is recorded as “similar”. For the same compound, the “time of peak plasma concentration” value in data set [2] (fasted population) and in data set [2] (fed population) was 4 h throughout. For the same compound, the “peak plasma concentration of lactitol” value in data set [2] (fasted population, approx. 21 g oral dose) is 2412 ng/mL; in data set [2] (fed population (dose 30 minutes after start of high-fat, high-calorie meal)), 738.25 ng/mL. Further, in data set [2] (fasted population, hour 1, approx. 21 g oral dose), the “average plasma concentration of lactitol” value is listed as 1193 ng/mL. In addition, the “plasma concentration of lactitol” value in data set [2] (fasted population, hour 8) stood at 935 ng/mL; in data set [2] (fasted population, hour 12 post-dose), 218 ng/mL; in data set [2] (fed population, hour 8) it was 387.93 ng/mL; in data set [2] (fed population, hour 12 post-dose) it was 124.16 ng/mL. The “plasma concentration of lactitol remained above” value in data set [2] (fasted population, until hour 8) was “above 1000 ng/mL”. In data set [2] (fed v. fasted), the “AUC, fed population smaller than fasted population” value was found to be 10 times. Besides, in data set [2] (fed v. fasted), the “peak concentration, fed compared with fasted population” value was “more than three times smaller”. The “fraction of an oral dose excreted in urine” value in data set [3] is reported as 0.6%. For the same compound, the calcium absorption entry in the data set on calcium absorption is recorded as “significant increase”. The “adverse events associated with administration” value in data set [4] was “flatulence, nausea, vomiting, abdominal cramping or pain and bloating”. Moreover, the “rise in plasma glucose after ingestion” value with plasma glucose is recorded as “no rise in plasma glucose”.
